Measurements taken from US20210317140A1, “Heterocyclic Compounds and Methods of Use” (MEDIVATION TECHNOLOGIES, INC, priority 2013, published 2021).

Assays:
Format in all cases: biochemical
[1] = target: T1, BTK (Homo sapiens, UniProt Q06187); test: BTK kinase assay (HotSpot, 33P ATP); details: for IC50: 10 dose IC50, 10 μM ATP; for BTK @ 0.1 μM (% Inh): 0.1 μM compound; for BTK @ 1 μM (% Inh): 1 μM compound
T1 construct: purchased Reaction Biology Corporation
Summary of the method: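 In 20 mM Hepes (pH 7.5) with 10 mM MgCl2, 1 mM EGTA, 0.1 mM Na3VO4, 2 mM DTT, 0.02% Brij35, 0.02 mg/mL BSA and 1% DMSO, kinase and substrate were exposed to ten compound doses for 15–20 min.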

[2] = target: T2, PI3Kδ (Homo sapiens, UniProt O00329); test: PI3Kδ kinase assay (HTRF, PIP3 detection); details: for IC50: 10 dose IC50, 10 μM ATP; for PI3Kδ @ 0.1 μM (% Inh): 0.1 μM compound; for PI3Kδ @ 1 μM (% Inh): 1 μM compound
T2 construct: purchased Reaction Biology Corporation
Summary of the method: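 10-dose HTRF assay; kinase preincubated with compound 10 min at RT, then reacted with 10 μM PIP2 and 10 μM ATP for 30 min at 30 °C in HEPES pH 7.0 buffer. PIP3 product displaces biotin-PIP3 from the Eu/APC complex; signal converted to PIP3 via standard curve, IC50 by nonlinear regression.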

[3] = target: T3, PI3Kγ (Homo sapiens, UniProt P48736); test: PI3Kγ isoform profiling (PI3Kδ protocol); details: for PI3Kγ @ 0.3 μM (% Inh): 0.3 μM compound; for IC50: 10 dose IC50
T3 construct: purchased Reaction Biology Corporation
Description: PI3Kδ assay: The PIP3 product is detected by displacement of biotin-PIP3 from an energy transfer complex consisting of Europium labeled anti-GST monoclonal antibody, a GST-tagged pleckstrin homology (PH) domain, biotinylated PIP3 and Streptavidin-Allophycocyanin (APC). Excitation of Europium in the complex results in an energy transfer to the APC and a fluorescent emission at 665 nm. The PIP3 product formed by PI 3-Kinase(h) activity displaces biotin-PIP3 from the complex resulting in a loss of energy transfer and thus a decrease in signal. This is a 3-step reaction: First, the kinase reaction with PIP2 substrate is carried out in the presence of ATP (10 μM), and the reaction is quenched with stop Solution, and then finally detect by adding Detection Mixture followed by incubation (10 min). Reaction procedure: 1) Prepare substrate in freshly prepared Reaction Buffer. 2) Deliver kinase into the substrate solution and gently mix. 3) Deliver compounds in 100% DMSO (1 μM) into the kinase reaction mixture by Acoustic technology (Echo550; nanoliter range), incubate for 10 min at RT. 4) Deliver ATP into the reaction mixture to initiate the reaction. 5) Incubate for 30 min at 30° C. 6) Quench the reaction with Stop Solution. 7) Add Detection Mixture, and incubate for overnight. 8) Measure HTRF: Ex=320 nm, ratio of Em=615 nm and Em=665 nm. The emission ratio is converted into μM PIP3 production based on PIP3 standard curves. The nonlinear regression to obtain the standard curve and IC50 values are performed using Graphpad Prism software. Assay Buffer: HEPES 50 mM (pH7.0), NaN3 0.02%, BSA 0.01%, Orthovanadate 0.1 mM, 1% DMSO. Detection buffer: HEPES 10 mM (pH7.0), BSA 0.02%, KF 0.16 M, EDTA 4 mM. Substrate: 10 μM PIP2 substrate (PI(4,5)P2).
Compounds of the invention were profiled in a 10 dose IC50 panel against PI3Kα, PI3Kβ, and PI3Kγ kinases, provided by Reaction Biology Corporation, applied to the PI3Kδ protocol provided in Example B1.

[4] = target: T4, ITK (Homo sapiens, UniProt Q08881); test: ITK kinase profiling (BTK protocol); details: for ITK @ 0.3 μM (% Inh): 0.3 μM compound; for IC50: 10 dose IC50
T4 construct: purchased Reaction Biology Corporation
T4 sequence (Q08881 1-620): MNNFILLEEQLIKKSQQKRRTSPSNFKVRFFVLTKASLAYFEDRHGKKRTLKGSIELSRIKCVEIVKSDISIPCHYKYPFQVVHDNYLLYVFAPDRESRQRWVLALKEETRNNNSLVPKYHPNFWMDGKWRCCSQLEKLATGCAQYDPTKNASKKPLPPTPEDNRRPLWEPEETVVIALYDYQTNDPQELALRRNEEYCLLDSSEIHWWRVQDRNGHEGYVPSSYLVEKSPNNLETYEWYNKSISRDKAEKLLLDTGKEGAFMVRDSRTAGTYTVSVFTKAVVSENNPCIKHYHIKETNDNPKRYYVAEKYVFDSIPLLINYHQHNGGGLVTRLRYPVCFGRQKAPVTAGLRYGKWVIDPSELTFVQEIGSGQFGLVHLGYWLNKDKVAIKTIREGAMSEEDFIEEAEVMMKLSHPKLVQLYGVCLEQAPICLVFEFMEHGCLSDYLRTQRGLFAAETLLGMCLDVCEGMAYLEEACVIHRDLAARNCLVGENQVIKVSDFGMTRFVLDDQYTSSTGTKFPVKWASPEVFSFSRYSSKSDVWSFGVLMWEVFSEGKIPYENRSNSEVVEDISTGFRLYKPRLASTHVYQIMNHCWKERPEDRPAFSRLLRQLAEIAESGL
Description: BTK assay: In vitro profiling protein kinases was performed using the “HotSpot” assay platform. Briefly, specific kinase/substrate pairs along with required cofactors were prepared in reaction buffer. Compounds were prepared as 10 mM stock solutions in DMSO. Compounds were delivered into the reaction, followed 15-20 minutes later by addition of a mixture of ATP (Sigma, St. Louis Mo.) and ^33P ATP (Perkin Elmer, Waltham Mass.) to a final concentration of 10 μM. […] IC50 values and curve fits were obtained using Prism (GraphPad Software). Buffer Conditions: 20 mM Hepes (pH 7.5), 10 mM MgCl2, 1 mM EGTA, 0.02% Brij35, 0.02 mg/mL BSA, 0.1 mM Na3VO4, 2 mM DTT, 1% DMSO.

T2 sequence (O00329 whole entry): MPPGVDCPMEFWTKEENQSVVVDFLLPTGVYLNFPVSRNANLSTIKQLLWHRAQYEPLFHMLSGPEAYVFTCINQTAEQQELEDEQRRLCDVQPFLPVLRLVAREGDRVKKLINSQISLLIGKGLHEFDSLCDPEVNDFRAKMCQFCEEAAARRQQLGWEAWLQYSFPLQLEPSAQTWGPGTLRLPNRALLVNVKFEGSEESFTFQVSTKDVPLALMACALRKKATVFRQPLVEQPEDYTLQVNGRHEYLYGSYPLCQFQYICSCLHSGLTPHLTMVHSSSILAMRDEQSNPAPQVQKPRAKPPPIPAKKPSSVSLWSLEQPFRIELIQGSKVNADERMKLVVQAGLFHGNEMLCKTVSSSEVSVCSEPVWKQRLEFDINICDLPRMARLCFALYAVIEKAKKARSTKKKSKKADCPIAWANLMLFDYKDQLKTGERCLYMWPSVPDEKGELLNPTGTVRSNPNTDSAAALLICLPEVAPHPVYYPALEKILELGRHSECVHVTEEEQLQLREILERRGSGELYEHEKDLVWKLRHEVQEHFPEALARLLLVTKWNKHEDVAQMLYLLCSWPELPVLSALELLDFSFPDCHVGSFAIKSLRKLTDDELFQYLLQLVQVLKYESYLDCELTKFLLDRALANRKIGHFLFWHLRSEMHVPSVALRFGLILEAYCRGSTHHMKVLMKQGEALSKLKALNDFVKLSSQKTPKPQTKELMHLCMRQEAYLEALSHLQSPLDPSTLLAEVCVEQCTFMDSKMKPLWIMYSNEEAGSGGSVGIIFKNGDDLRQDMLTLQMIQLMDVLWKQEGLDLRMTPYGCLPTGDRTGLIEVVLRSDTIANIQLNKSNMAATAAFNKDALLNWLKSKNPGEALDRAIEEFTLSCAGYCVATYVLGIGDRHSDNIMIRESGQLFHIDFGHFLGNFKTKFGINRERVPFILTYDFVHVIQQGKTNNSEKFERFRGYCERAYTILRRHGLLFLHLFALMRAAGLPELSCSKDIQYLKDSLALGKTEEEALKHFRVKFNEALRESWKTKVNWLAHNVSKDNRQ
T2 sequence (P27986 whole entry partner): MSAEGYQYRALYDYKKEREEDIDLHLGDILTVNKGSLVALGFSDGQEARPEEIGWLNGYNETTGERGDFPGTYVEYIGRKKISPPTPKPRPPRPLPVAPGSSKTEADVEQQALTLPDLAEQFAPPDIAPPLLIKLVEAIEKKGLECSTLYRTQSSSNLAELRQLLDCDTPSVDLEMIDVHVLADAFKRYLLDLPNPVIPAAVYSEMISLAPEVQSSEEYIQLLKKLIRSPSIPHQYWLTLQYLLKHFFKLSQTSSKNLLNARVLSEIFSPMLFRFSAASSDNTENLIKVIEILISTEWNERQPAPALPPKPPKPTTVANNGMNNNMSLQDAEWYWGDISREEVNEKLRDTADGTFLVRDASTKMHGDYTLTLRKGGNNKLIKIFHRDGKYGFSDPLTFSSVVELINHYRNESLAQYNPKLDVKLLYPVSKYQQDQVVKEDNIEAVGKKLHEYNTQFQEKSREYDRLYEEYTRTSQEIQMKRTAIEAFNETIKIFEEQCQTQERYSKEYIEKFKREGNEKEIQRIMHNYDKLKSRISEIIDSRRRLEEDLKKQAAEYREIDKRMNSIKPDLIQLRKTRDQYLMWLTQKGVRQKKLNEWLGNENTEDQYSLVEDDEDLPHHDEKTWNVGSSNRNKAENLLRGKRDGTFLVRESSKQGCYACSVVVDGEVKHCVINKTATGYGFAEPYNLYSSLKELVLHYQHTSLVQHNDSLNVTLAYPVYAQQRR
T3 sequence (P48736 whole entry, canonical isoform): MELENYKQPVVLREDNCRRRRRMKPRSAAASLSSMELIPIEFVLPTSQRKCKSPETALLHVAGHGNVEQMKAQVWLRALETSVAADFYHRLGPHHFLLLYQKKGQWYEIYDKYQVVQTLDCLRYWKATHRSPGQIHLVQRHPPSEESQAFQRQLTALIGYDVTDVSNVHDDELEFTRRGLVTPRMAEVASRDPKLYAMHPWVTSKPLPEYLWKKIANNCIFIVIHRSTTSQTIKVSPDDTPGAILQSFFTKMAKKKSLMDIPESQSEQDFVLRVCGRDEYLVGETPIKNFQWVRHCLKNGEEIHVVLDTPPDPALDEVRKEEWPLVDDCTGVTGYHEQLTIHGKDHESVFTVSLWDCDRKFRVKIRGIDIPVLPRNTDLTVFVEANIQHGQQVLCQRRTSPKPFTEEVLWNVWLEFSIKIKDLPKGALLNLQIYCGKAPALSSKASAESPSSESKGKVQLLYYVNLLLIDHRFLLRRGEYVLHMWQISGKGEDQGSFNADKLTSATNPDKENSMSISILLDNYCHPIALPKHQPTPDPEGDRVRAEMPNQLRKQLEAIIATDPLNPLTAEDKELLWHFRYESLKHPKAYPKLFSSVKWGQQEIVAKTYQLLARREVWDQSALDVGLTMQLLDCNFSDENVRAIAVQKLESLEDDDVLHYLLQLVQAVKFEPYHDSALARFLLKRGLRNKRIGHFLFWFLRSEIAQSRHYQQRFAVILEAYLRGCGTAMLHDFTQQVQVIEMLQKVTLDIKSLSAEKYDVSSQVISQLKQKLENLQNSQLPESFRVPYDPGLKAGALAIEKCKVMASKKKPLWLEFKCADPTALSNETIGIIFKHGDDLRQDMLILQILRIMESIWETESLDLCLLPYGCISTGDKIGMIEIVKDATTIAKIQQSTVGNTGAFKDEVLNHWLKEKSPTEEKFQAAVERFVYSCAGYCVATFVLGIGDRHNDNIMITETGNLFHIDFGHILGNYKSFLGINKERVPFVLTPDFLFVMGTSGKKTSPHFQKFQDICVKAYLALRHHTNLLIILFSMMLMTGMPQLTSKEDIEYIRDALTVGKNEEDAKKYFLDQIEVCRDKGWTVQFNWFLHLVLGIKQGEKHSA
T1 sequence (Q06187 whole entry): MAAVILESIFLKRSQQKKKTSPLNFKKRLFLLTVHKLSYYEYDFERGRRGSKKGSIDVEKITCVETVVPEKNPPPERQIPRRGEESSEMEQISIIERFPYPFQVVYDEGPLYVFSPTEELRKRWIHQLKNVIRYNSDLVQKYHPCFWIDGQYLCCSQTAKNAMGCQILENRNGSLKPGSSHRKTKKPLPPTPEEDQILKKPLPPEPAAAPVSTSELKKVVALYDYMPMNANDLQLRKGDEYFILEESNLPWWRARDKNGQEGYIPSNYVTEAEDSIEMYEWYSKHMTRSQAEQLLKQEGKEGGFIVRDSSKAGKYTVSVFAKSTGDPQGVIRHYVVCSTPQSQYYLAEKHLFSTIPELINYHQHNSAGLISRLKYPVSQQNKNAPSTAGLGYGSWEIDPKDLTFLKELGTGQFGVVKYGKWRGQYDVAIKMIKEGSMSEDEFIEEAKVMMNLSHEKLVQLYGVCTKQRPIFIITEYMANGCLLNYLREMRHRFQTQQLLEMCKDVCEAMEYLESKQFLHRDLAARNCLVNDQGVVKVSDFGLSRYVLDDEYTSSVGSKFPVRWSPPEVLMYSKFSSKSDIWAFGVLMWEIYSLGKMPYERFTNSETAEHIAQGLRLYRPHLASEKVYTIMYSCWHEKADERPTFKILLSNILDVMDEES

SMILES	IC50 [1]	IC50 [2]	PI3Kγ @ 0.3 μM (% Inh) [3]	ITK @ 0.3 μM (% Inh) [4]	BTK @ 0.1 μM (% Inh) ([1]; 10 μM ATP)	PI3Kδ @ 0.1 μM (% Inh) ([2]; 10 μM ATP)	PI3Kγ @ 0.3 μM (% Inh) ([3]; 0.3 µM)	ITK @ 0.3 μM (% Inh) ([4]; 0.3 µM)	BTK @ 0.01 μM (% Inh) ([1]; 0.01 μM compound, 10 μM ATP)	PI3Kδ @ 0.01 μM (% Inh) ([2]; 0.01 μM compound, 10 μM ATP)	IC50 [3]	IC50 [4]	BTK @ 1 μM (% Inh) ([1]; 10 μM ATP)	PI3Kδ @ 1 μM (% Inh) ([2]; 10 μM ATP)
Nc1ncnc2c1c(-c1ccc(F)c(O)c1)nn2C1CCc2ccccc2C1 (racemic) [Compound No. 26, 5-(4-amino-1-(1,2,3,4-tetrahydronaphthalen-2-yl)-1H-pyrazolo[3,4-d]pyrimidin-3-yl)-2-fluorophenol]	10.6 nM	66.1 nM	38.75 % Inh	2.15 % Inh										
Nc1ncnc2c1c(-c1ccc3cc[nH]c3c1)nn2C1CCc2ccccc2C1 (racemic) [compound 18, 3-(1H-indol-6-yl)-1-(1,2,3,4-tetrahydronaphthalen-2-yl)-1H-pyrazolo[3,4-d]pyrimidin-4-amine]	258 nM	108 nM	19.7 % Inh	−3.29 % Inh	38.26 % Inh	18.95 % Inh								
Nc1ncnc2c1c(-c1cc(O)cc(F)c1)nn2C1CCc2ccccc2C1 (single isomer, unassigned) [6a, 3-(4-amino-1-(1,2,3,4-tetrahydronaphthalen-2-yl)-1H-pyrazolo[3,4-d]pyrimidin-3-yl)-5-fluorophenol]	81.1 nM	9.1 nM			63.12 % Inh	77.7 % Inh	38.58 % Inh	4.58 % Inh						
Nc1ncnc2c1c(-c1cc(O)cc(F)c1)nn2C1CCc2ccccc2C1 (single isomer, unassigned) [6b, 3-(4-amino-1-(1,2,3,4-tetrahydronaphthalen-2-yl)-1H-pyrazolo[3,4-d]pyrimidin-3-yl)-5-fluorophenol]	112 nM	7.7 nM			45.78 % Inh	79.6 % Inh	45.57 % Inh	0.04 % Inh						
C=CC(=O)N1CC(n2nc(-c3cc(O)cc(F)c3)c3c(N)ncnc32)Cc2cc(C)ccc21 (single isomer, unassigned) [31b, 1-(3-(4-amino-3-(3-fluoro-5-hydroxyphenyl)-1H-pyrazolo[3,4-d]pyrimidin-1-yl)-6-methyl-3,4-dihydroquinolin-1(2H)-yl)prop-2-en-1-one]	12.1 nM	10.6 nM	14.76 % Inh	6.31 % Inh	93.12 % Inh	78.27 % Inh			64.36 % Inh	44.15 % Inh				
Nc1ncnc2c1c(-c1ccc(F)c(O)c1)nn2C1CCc2ccccc2C1 (single isomer, unassigned) [Compound No. 26a, 5-(4-amino-1-(1,2,3,4-tetrahydronaphthalen-2-yl)-1H-pyrazolo[3,4-d]pyrimidin-3-yl)-2-fluorophenol]	10.4 nM	114 nM			84.11 % Inh	39.35 % Inh					405 nM	> 100000 nM		
Nc1ncnc2c1c(-c1ccc(F)c(O)c1)nn2C1CCc2ccccc2C1 (single isomer, unassigned) [Compound No. 26b, 5-(4-amino-1-(1,2,3,4-tetrahydronaphthalen-2-yl)-1H-pyrazolo[3,4-d]pyrimidin-3-yl)-2-fluorophenol]	20.9 nM	55.2 nM			82.1 % Inh	47.94 % Inh					455 nM	51600 nM		
Nc1ncnc2c1c(-c1ccc(F)c(O)c1)nn2C1Cc2ccccc2C1 [Compound No. 29, 5-(4-amino-1-indan-2-yl-pyrazolo[3,4-d]pyrimidin-3-yl)-2-fluoro-phenol]	7 nM	61.3 nM			90.90 % Inh	61.73 % Inh					196 nM	> 100000 nM		
COc1cc(-c2nn(C3Cc4ccccc4C3)c3ncnc(N)c23)ccc1C [Compound No. 49, 1-(2,3-dihydro-1H-inden-2-yl)-3-(3-methoxy-4-methylphenyl)-1H-pyrazolo[3,4-d]pyrimidin-4-amine]	57.1 nM	119 nM	30.41 % Inh	6.31 % Inh	75.02 % Inh	57.87 % Inh							96.31 % Inh	89.73 % Inh
Nc1ncnc2c1c(-c1ccc(Cl)c(O)c1)nn2C1Cc2ccccc2C1 [Compound No. 56, 5-[4-amino-1-(2,3-dihydro-1H-inden-2-yl)-1H-pyrazolo[3,4-d]pyrimidin-3-yl]-2-chlorophenol]	13.5 nM	33.2 nM	62.17 % Inh	8.82 % Inh	90.244 % Inh	69.44 % Inh							98.64 % Inh	99.12 % Inh
Nc1ncnc2c1c(-c1cc(O)cc(F)c1)cn2C1Cc2ccccc2C1 [Compound No. 63, 3-[4-amino-7-(2,3-dihydro-1H-inden-2-yl)-7H-pyrrolo[2,3-d]pyrimidin-5-yl]-5-fluorophenol]	4.2 nM	10.4 nM	33.44 % Inh	3.68 % Inh	92.01 % Inh	81.43 % Inh							98.56 % Inh	92.56 % Inh
COc1ccc(-c2nn(C3Cc4ccccc4C3)c3ncnc(N)c23)cc1O [Compound No. 68, 5-[4-amino-1-(2,3-dihydro-1H-inden-2-yl)-1H-pyrazolo[3,4-d]pyrimidin-3-yl]-2-methoxyphenol]	84.3 nM	32.1 nM	51.6 % Inh	−6.84 % Inh	54.54 % Inh	57.97 % Inh							89.54 % Inh	87.4 % Inh
Nc1ncnc2c1c(-c1ccc(Br)c(O)c1)nn2C1Cc2ccccc2C1 [compound 2, 5-(4-amino-1-(2,3-dihydro-1H-inden-2-yl)-1H-pyrazolo[3,4-d]pyrimidin-3-yl)-2-bromophenol]					78.45 % Inh							> 100000 nM		
